Literature values as cited in publication PMC6219411 (Drug Design, Development and Therapy, 2018).

Settings: oral preparation

With `CC(C)(C#N)c1cc(Cn2cncn2)cc(C(C)(C)C#N)c1` [anastrozole, Anastrozole] as the compound, how does the mean elimination half-life read?
Its mean elimination half-life is 40 to 50 h.

What about the “time to maximum plasma concentrations” value of the same compound?
The value was at most 2 h.
